# Measurements taken from patent US20240158446A1, “CYCLIC COMPOUND HAVING SELECTIVE INHIBITORY ACTION ON KRAS OVER HRAS AND NRAS” (CHUGAI SEIYAKU KABUSHIKI KAISHA, priority 2021, published 2024).
# Where a SMILES comes first, the peptide text is derived from it. Bridges are numbered along the chain shown (N, C = ends). [ ]: non-standard residue; d: D form. The star is where a group is joined. hPhe(3-Cl-4-CF3) = N[C@@H](CCc1ccc(C(F)(F)F)c(Cl)c1)C(=O)O; NPrPhe(4-CF3) = CCCN[C@@H](Cc1ccc(C(F)(F)F)cc1)C(=O)O; NMeGly(cPent) = CN[C@H](C(=O)O)C1CCCC1; NMeChg = CN[C@H](C(=O)O)C1CCCCC1; NMeI = CC[C@H](C)[C@H](NC)C(=O)O; NMeD = CN[C@@H](CC(=O)O)C(=O)O; Ac4c(3-oxa) = NC1(C(=O)O)COC1; NMeL = CN[C@@H](CC(C)C)C(=O)O; NMeAbu = CC[C@H](NC)C(=O)O; NMeS = CN[C@@H](CO)C(=O)O; Morpholide = C1CN(*)CCO1; Ac5c = NC1(C(=O)O)CCCC1; Ac4c = NC1(C(=O)O)CCC1; Sar = CNCC(=O)O
# What was measured:
# [1] = biological target: GDP-bound HRAS wild-type protein (Homo sapiens, UniProt P01112); test: Binding to HRAS by surface plasmon resonance (SPR), Single Cycle Kinetics; details: ratio of KD for GDP-bound HRAS wild-type protein to KD for KRAS, SPR
# [2] = biological target: GDP-bound KRAS wild-type protein (Homo sapiens, UniProt P01116); test: Binding to KRAS by surface plasmon resonance (SPR), Single Cycle Kinetics; details: SPR, Single Cycle Kinetics, GDP-bound KRAS wild-type protein; read-out: KRAS KD
# [3] = biological target: GDP-bound NRAS wild-type protein (Homo sapiens, UniProt P01111); test: Binding to NRAS by surface plasmon resonance (SPR), Single Cycle Kinetics; details: ratio of KD for GDP-bound NRAS wild-type protein to KD for KRAS, SPR
# [4] = tested on: human lung cancer strain NCI-H441; test: cells; details: NCI-H441, 96 h, read-out: NCI-H441 IC50 (nM), NCI-H441 cell proliferation, 4 days, CellTiter-Glo;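 further: cell proliferation inhibition after four days measured by CellTiter-Glo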
# GDP-bound KRAS wild-type protein, sequence (P01116 whole entry): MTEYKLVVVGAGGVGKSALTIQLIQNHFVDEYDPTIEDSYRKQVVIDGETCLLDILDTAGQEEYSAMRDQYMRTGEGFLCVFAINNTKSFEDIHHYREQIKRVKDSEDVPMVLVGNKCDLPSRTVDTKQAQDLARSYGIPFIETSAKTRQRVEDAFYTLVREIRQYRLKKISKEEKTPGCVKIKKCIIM
# GDP-bound NRAS wild-type protein, sequence (P01111 whole entry): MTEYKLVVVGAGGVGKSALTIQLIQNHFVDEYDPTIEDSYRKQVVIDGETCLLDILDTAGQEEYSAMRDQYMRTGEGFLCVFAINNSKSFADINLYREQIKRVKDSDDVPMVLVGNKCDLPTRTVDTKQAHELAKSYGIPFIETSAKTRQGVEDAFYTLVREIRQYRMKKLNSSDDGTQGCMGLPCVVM
# GDP-bound HRAS wild-type protein, sequence (P01112 whole entry): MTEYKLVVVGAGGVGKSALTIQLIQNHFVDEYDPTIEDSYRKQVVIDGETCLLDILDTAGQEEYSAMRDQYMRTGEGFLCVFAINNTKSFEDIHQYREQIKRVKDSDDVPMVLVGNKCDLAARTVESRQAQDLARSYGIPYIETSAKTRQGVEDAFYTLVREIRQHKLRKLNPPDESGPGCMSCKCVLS
Compound,HRAS/KRAS (KD ratio) [1],Kd [2],NRAS/KRAS (KD ratio) [3],IC50 [4]
CCCN1C(=O)CN(C)C(=O)CN(C)C(=O)[C@H]([C@@H](C)CC)NC(=O)[C@H](CC(C)C)N(C)C(=O)C[C@@H](C(=O)N2CCOCC2)N(C)C(=O)[C@H](C2CCCC2)N(C)C(=O)C2(CCC2)NC(=O)[C@H](CC)N(C)C(=O)[C@H](CCc2ccc(C(F)(F)F)c(Cl)c2)NC(=O)CN(C)C(=O)[C@@H]1Cc1ccc(C(F)(F)F)cc1 [PP1918] ([NMeL]I[Sar][Sar][NPrPhe(4-CF3)][Sar][hPhe(3-Cl-4-CF3)][NMeAbu][Ac4c][NMeGly(cPent)][NMeD]-Morpholide; lactam N-11),C (A compound having a KD ratio of 0.1 or more and less than 3 is denoted as C),0.19 nM,B (a compound having 3 or more and less than 10 is denoted as B),32.8 nM
CCO[C@@H]1C[C@H]2C(=O)NC3(CC(C)(C)C3)C(=O)N(C)[C@@H](C3CCCC3)C(=O)N(C)[C@H](C(=O)N(C)CC)CC(=O)N(C)[C@@H](CC(C)C)C(=O)N[C@@H]([C@@H](C)OCC)C(=O)N(C)CC(=O)N(C)[C@H]3C/C=C\CCN(C3=O)[C@@H](Cc3ccc(C(F)(F)F)cc3)C(=O)N(C)CC(=O)N[C@@H](CCc3cc(F)c(C(F)(F)F)c(F)c3)C(=O)N2C1 [PP1919],A (a compound having 10 or more and less than 20 is denoted as A),0.23 nM,A (a compound having 10 or more and less than 20 is denoted as A),6.3 nM
CCCN1C(=O)CN(C)C(=O)CN(C)C(=O)[C@H]([C@@H](C)CC)NC(=O)[C@H](CC(C)C)N(C)C(=O)C[C@@H](C(=O)N2CCOCC2)N(C)C(=O)[C@H](C2CCCC2)N(C)C(=O)C2(CCCC2)NC(=O)[C@H](COC)N(C)C(=O)[C@H](CCc2ccc(C(F)(F)F)c(Cl)c2)NC(=O)CN(C)C(=O)[C@@H]1Cc1ccc(C(F)(F)F)cc1 [PP1920] ([NMeL]I[Sar][Sar][NPrPhe(4-CF3)][Sar][hPhe(3-Cl-4-CF3)][NMeS](Me)[Ac5c][NMeGly(cPent)][NMeD]-Morpholide; lactam N-11),C (A compound having a KD ratio of 0.1 or more and less than 3 is denoted as C),0.31 nM,B (a compound having 3 or more and less than 10 is denoted as B),32.4 nM
CCCO[C@H](C)[C@@H]1NC(=O)[C@H](CC(C)C)N(C)C(=O)C[C@@H](C(=O)N(C)C)N(C)C(=O)[C@H](C2CCCC2)N(C)C(=O)C2(CC(C)(C)C2)NC(=O)[C@@H]2C[C@@H](OCC)CN2C(=O)[C@H](CCc2cc(F)c(C(F)(F)F)c(F)c2)NC(=O)CN(C)C(=O)[C@H](Cc2ccc(C(F)(F)F)cc2)N2CC/C=C\C[C@@H](C2=O)N(C)C(=O)CN(C)C1=O [PP1921],A (a compound having 10 or more and less than 20 is denoted as A),0.055 nM,A (a compound having 10 or more and less than 20 is denoted as A),7.8 nM
CCCN1C(=O)CN(C)C(=O)CN(C)C(=O)[C@H]([C@@H](C)CC)NC(=O)[C@H](CC(C)C)N(C)C(=O)C[C@@H](C(=O)N2CCOCC2)N(C)C(=O)[C@H](C2CCCC2)N(C)C(=O)C2(COC2)NC(=O)[C@@H]2CCCN2C(=O)[C@H](CCc2ccc(C(F)(F)F)c(Cl)c2)NC(=O)CN(C)C(=O)[C@@H]1Cc1ccc(C(F)(F)F)cc1 [PP1922] ([NMeL]I[Sar][Sar][NPrPhe(4-CF3)][Sar][hPhe(3-Cl-4-CF3)]P[Ac4c(3-oxa)][NMeGly(cPent)][NMeD]-Morpholide; lactam N-11),C (A compound having a KD ratio of 0.1 or more and less than 3 is denoted as C),0.23 nM,B (a compound having 3 or more and less than 10 is denoted as B),44.1 nM
CCCN(C)C(=O)[C@@H]1CC(=O)N(C)[C@@H](CC(C)C)C(=O)N[C@@H](C2CCOCC2)C(=O)N(C)CC(=O)N(C)[C@H]2C/C=C\CCN(C2=O)[C@@H](Cc2ccc(C(F)(F)F)cc2)C(=O)N(C)CC(=O)N[C@@H](CCc2cc(F)c(C(F)(F)F)c(F)c2)C(=O)N2C[C@H](OCC)C[C@H]2C(=O)NC2(CC(C)(C)C2)C(=O)N(C)[C@@H](C2CCCC2)C(=O)N1C [PP1923],A (a compound having 10 or more and less than 20 is denoted as A),3.4 nM,A (a compound having 10 or more and less than 20 is denoted as A),68 nM
CCC[C@H]1C(=O)N[C@@H]([C@@H](C)CC)C(=O)N2CC[C@H]2C(=O)N(C)[C@H]2C/C=C\CCN(C2=O)[C@@H](Cc2ccc(C(F)(F)F)cc2)C(=O)N(C)CC(=O)N[C@@H](CCc2cc(F)c(C(F)(F)F)c(F)c2)C(=O)N2C[C@H](OCC)C[C@H]2C(=O)NC2(CC(C)(C)C2)C(=O)N(C)[C@@H](C2CCCC2)C(=O)N(C)[C@H](C(=O)N(C)C)CC(=O)N1C [PP1925],A (a compound having 10 or more and less than 20 is denoted as A),0.23 nM,A (a compound having 10 or more and less than 20 is denoted as A),9.7 nM
CCCN1C(=O)CN(C)C(=O)CN(C)C(=O)[C@H]([C@@H](C)CC)NC(=O)[C@H](CC(C)C)N(C)C(=O)C[C@@H](C(=O)N2CCOCC2)N(C)C(=O)[C@H]([C@@H](C)CC)N(C)C(=O)C2(CCCC2)NC(=O)[C@@H]2CCCN2C(=O)[C@H](CCc2ccc(C(F)(F)F)c(Cl)c2)NC(=O)CN(C)C(=O)[C@@H]1Cc1ccc(C(F)(F)F)cc1 [PP1926] ([NMeL]I[Sar][Sar][NPrPhe(4-CF3)][Sar][hPhe(3-Cl-4-CF3)]P[Ac5c][NMeI][NMeD]-Morpholide; lactam N-11),B (a compound having 3 or more and less than 10 is denoted as B),0.36 nM,B (a compound having 3 or more and less than 10 is denoted as B),17.4 nM
CCC[C@H]1C(=O)N[C@@H]([C@@H](C)CC)C(=O)N[C@@H](C)C(=O)N(C)[C@H]2C/C=C\CCN(C2=O)[C@@H](Cc2ccc(C(F)(F)F)cc2)C(=O)N(C)CC(=O)N[C@@H](CCc2cc(F)c(C(F)(F)F)c(F)c2)C(=O)N2C[C@H](OCC)C[C@H]2C(=O)NC2(CC(C)(C)C2)C(=O)N(C)[C@@H](C2CCCC2)C(=O)N(C)[C@H](C(=O)N(C)C)CC(=O)N1C [PP1927],A (a compound having 10 or more and less than 20 is denoted as A),0.85 nM,A (a compound having 10 or more and less than 20 is denoted as A),23.5 nM
CCCN1C(=O)CN(C)C(=O)CN(C)C(=O)[C@H]([C@@H](C)CC)NC(=O)[C@H](CC(C)C)N(C)C(=O)C[C@@H](C(=O)N2CCOCC2)N(C)C(=O)[C@H](C2CCCCC2)N(C)C(=O)C2(CCC2)NC(=O)[C@@H]2CCCN2C(=O)[C@H](CCc2ccc(C(F)(F)F)c(Cl)c2)NC(=O)CN(C)C(=O)[C@@H]1Cc1ccc(C(F)(F)F)cc1 [PP1928] ([NMeL]I[Sar][Sar][NPrPhe(4-CF3)][Sar][hPhe(3-Cl-4-CF3)]P[Ac4c][NMeChg][NMeD]-Morpholide; lactam N-11),B (a compound having 3 or more and less than 10 is denoted as B),0.25 nM,B (a compound having 3 or more and less than 10 is denoted as B),18.4 nM
